Results on four compounds are retold here after patent publication US4136163A, “P-Menthane carboxamides having a physiological cooling effect” (Wilkinson Sword Limited, priority 1971, dated 1979).

Assay [1] deals with cold receptors. Kind of assay: Cooling effect of consumer product in the mouth / on the tongue. The format is in vivo, human. The procedure:
To the compositions was added 0.1% of N-n-propyl-p-menthane-3-carboxamide.
Shortly before completion of the blending operation 0.5% by weight of N-(p-menth-3-oyl) morpholine was added to the blender. […]
N-(2-hydroxy-n-propyl)-p-menthane-3-carboxamide was added to a proprietary gin in an amount of 0.08%.
99.5% sucrose and 0.5% citric acid were carefully fused together in the presence of a trace of water. Just before casting the melt onto a chilled plate 0.13% of N,N-dimethyl-p-menthane-3-carboxamide were repidly stirred in. The melt was then cast.
Water was added to icing sugar at 50° C to form a stiff paste. 0.05% of N-ethyl-p-menthane-3-carboxamide was then stirred into a paste and the mixture allowed to set. […]
A proprietary ice cream mixture was mixed in accordance with the manufactures instructions. Shortly before freezing N-p-menth-3-oyl-β-aminopropionic acid n-propyl ester was added in an amount of 0.05%. […]

The subject of assay [2] is cold receptors. Kind of assay: Cooling effect of consumer product applied to skin (face, scalp, lips, forehead). The format is in vivo, human. The procedure:
Into two separate samples of the base lotion were added 2.0% by weight based on the total composition of N-ethyl-p-menthane-3-carboxamide and N,N-dimethyl-p-menthane-3-carboxamide, each into a different one of the two samples.
To the recipe was added 3.0%, based on the total composition of N-p-menth-3-oylglycine methyl ester. […]
Sodium lauryl ether sulphate, 10 g., was dispersed in 90 g. water in a high speed mill. To the dispersion was added 3.3% by weight of N-(2-hydroxy-n-propyl)-p-menthane-3-carboxamide. […]
The sodium stearate was dissolved by stirring in a warm mixture of the ethanol propylene glycol and water. To the solution was added the perfume and 3.0% of N-(2-hydroxy-n-propyl)-p-menthane-3-carboxamide and the mixture then allowed to solidify into a waxy cake. […]
This Example illustrates now the physiological cooling effect of the compounds of this invention varies according to the locality of application.
In the course of grinding there was added 3.0% of N-n-propyl-p-menthane-3-carboxamide. […]
To this liquid was added 1.0% of N-ethyl-p-menthane-3-carboxamide. A paper tissue was then soaked in the liquid.

Assay [3] concerns cold receptors. Kind of assay: Threshold test: minimum quantity of compound on filter paper square on tongue giving a noticeable cooling effect, selected panel of 6 people. The assay is classed as in vivo, human. The following applies: panel of 6 people, cooling reported 50% of the time. The source says: For example, a controlling factor in the onset of cooling effect, its intensity and longevity will be the rate of penetration of the compounds through the epidermis and this will vary in different locations on the human body.
It will also benoted that the described test procedure is done on a statistical basis. This is necessary since sensitivity to these compounds will vary not only from compound to compound and from one part of the body to another, but also from one individual to another. Tests of this nature are commonly used in the testing of the organoleptic properties, e.g. taste, smell etc. of organic and inorganic compounds, see Kirk-Othmer: Encyclopedia of Chemical Technology, 2nd. Ed.
The following test procedure is aimed at determining the minimum quantity of the test compound required to produce a noticeable cooling effect on a person of average sensitivity, this minimum quantity being termed the threshold for that particular compound. The tests are carried out on a selected panel of 6 people of median sensitivity to 1-menthol.
To select a test panel of average sensitivity the following procedure is used. Known quantities of 1-menthol in solution in petroleum ether (bp.40-60) are placed on 5 mm. squares of filter paper, whereafter the solvent is allowed to evaporate. A panel of observers is enrolled and asked to place one impregnated square at a time on the tongue and to report on the presence or absence of a cooling effect. […] Conveniently, one starts with squares containing 2.0 μg. 1-menthol, the amount on each successive square being half that of the preceding square, i.e. the second test square will contain 1.0 μg, the third 0.5 μg and so on. Each quantity is tested on the tongue at least 10 times. In this way, the thresholds to cold receptor stimulus by 1-menthol are determined for each individual of the panel, the threshold for each individual being that amount of 1-menthol for which, in a series of not less than 10 test applications, a cooling effect is reported 50% of the time.
To test the activity of compounds according to this invention, the above procedure is repeated using only the 6 selected panel members of average sensitivity to 1-menthol. The individual thresholds for each test compound on each of the 6 selected panel members are determined and averaged. Those compounds whose average threshold on the select test panel is 100 μg or less are regarded as having cooling activity in accordance with this invention.

For assay [4], the system named is cold receptors. Kind of assay: Cooling effect in the stomach after swallowing tablet. The conditions noted are these: 0.05%. The format is in vivo, human. The source says:
Added to the mixture during grinding was 0.05% of N-ethyl-p-menthane- 3-carboxamide. After mixing the mixture was pressed into 0.5 g tablets.
Soluble aspirin (calcium acetylsalicylate) tablets were impregnated with 0.05% of N-ethyl-p-menthane-3-carboxamide by absorption in the tablet of a metered drop of an ethanolic solution of the carboxamide.

Assay [5] has as its system cold receptors. Kind of assay: Cooling effect of eye lotion when used to bathe the eyes. The format is in vivo, human. The following applies: Example 9, eye lotion, 0.003%, eyeball and eyelids. The procedure:
To the formulation was added 0.003%, based on the total composition of N-(2-hydroxyethyl)-p-menthane carboxamide.

The conditions of assay [6]: literature; cited from earlier work.

Consider `CCNC(=O)C1CC(C)CCC1C(C)C` (stereo not drawn) [H, --C2 H5, N-ethyl-p-menthane-3-carboxamide], for which the cooling effect entry in assay [1] (Example 12, toothpick, 0.01 mg, tongue) was “a distinct cooling effect is noticeable after a short period of time”; in assay [1] (Example 17, mint sweet, 0.05%, mouth), “characteristic cooling effect in the mouth of peppermint”; in assay [1] (Example 25, water soluble adhesive on label, 0.025%, tongue) it was “a pleasant cooling sensation on the tongue”; in assay [2] (Example 2, after shave lotion, 2.0%, face), “a clearly noticeable cooling effect became apparent after a short interval of time”; in assay [2] (Example 24, cleansing tissue, 1.0% in liquid, skin) it was “a fresh cool sensation developed on the skin after a short interval”; in assay [4] (Example 20, indigestion tablet), “after a short interval of time a noticeable cooling effect in the stomach”. Besides, the cooling effect entry in assay [4] (Example 23, soluble aspirin tablet) is on record as “a quite noticeable cooling effect developed in the stomach after a short interval”. For the same compound, the “Threshold (average minimum quantity to produce a noticeable cooling effect)” value in assay [3] turned out to be 0.3 µg.
On to `CC1CCC(C(C)C)C(C(=O)NCCO)C1` (stereo not drawn) [H, --CH2 CH2 OH, N-(2-hydroxyethyl)-p-menthane carboxamide], for which the cooling effect result in assay [5] was “a cool fresh sensation is apparent on the eyeball and eyelids”. Moreover, the “Threshold (average minimum quantity to produce a noticeable cooling effect)” value in assay [3] was 5 µg.
`CCC(CC)C(=O)N(C)C` [N,N-Dimethyl 2-ethylbutanamide]: the “cooling taste or refreshing effect” value in assay [6] is reported as “refreshing effect”.
As to `CC(C)C1CCC(C)C(O)C1O` (stereo not drawn) [2,3-p-menthane diol], in assay [6], the “cooling taste or refreshing effect” value was “sharp cooling taste”.
